Data from patent US20250281568A1, “METHOD FOR TREATING OR PREVENTING DRUG-INDUCED LIVER INJURY WITH PEPTIDE COMPOSITION” (Tunghai University, priority 2024, published 2025).

Assays:
Type in all cases: in vivo
BALB/cByJNarl mice [1] = assay: Biochemical analysis of blood (serum) of mice injected with acetaminophen; conditions: 50 mg/kg/day oral, 7 days
Method: (§1) After being raised under the corresponding conditions for 7 days, each group of mice was weighed and then fasted for 12 hours. After fasting, each group of mice was intraperitoneally injected with an acetaminophen solution at 300 mg/kg. 24 hours after the injection, the mice were sacrificed, and blood was collected from the mice.
The blood collected from each group of mice in example 2 was analyzed with a commercial assay kit in order to determine the concentrations of aspartate aminotransferase (AST), alanine aminotransferase (ALT), alkaline phosphatase (ALP), C-reactive protein (CRP), interleukin-6 (IL-6), and monocyte chemoattractant protein-1 (MCP-1) in the serum of each group of mice.

[2] = Animal test: body weight and organ weights of mice; conditions: 50 mg/kg/day oral, 7 days, then acetaminophen 300 mg/kg i.p.
Method: as §1

BALB/cByJNarl mice [3] = assay: Analysis of stained liver tissue sections (H&E, immunohistochemical staining) of mice injected with acetaminophen; conditions: 50 mg/kg/day oral, 7 days
Method: as §1
The liver tissue collected from each group of mice in example 2 was sectioned and then subjected to immunohistochemical staining with hematoxylin and eosin (H&E) and with different antibodies.

BALB/cByJNarl mice [4] = assay: Analysis of proteins in the liver of mice injected with acetaminophen; conditions: 50 mg/kg/day oral, 7 days; vs control group
Method: as §1
Livers were collected from each group of mice in example 2 and were analyzed in order to determine the concentrations of superoxidase dismutase (SOD), glutathione peroxidase (GPx), and glutathione (GSH) in the livers.

[5] = immunohistochemical staining, vs control group

SMILES: NCCC(=O)N[C@@H](Cc1cnc[nH]1)C(=O)O [carnosine]
- serum CRP concentration (BALB/cByJNarl mice [1]; vs blank group): not significantly different from that of the blank group
- serum ALP concentration (BALB/cByJNarl mice [1]; vs control group): significantly lower than those of the control group
- serum ALT concentration (BALB/cByJNarl mice [1]; vs control group): significantly lower than those of the control group
- serum AST concentration (BALB/cByJNarl mice [1]; vs control group): significantly lower than those of the control group
- serum CRP concentration (BALB/cByJNarl mice [1]; vs control group): significantly lower than that of the control group
- serum IL-6 concentration (BALB/cByJNarl mice [1]; vs control group): lower than that of the control group
- serum MCP-1 concentration (BALB/cByJNarl mice [1]; vs control group): significantly lower than that of the control group
- weight of heart ([2]; 24 hours, among the groups): no significant difference in the weight of heart
- liver weight ([2]; vs control group): liver weight of the control group of mice was significantly higher than those of the other groups
- expression amount of 4-hydroxy-2-nonenal (4-HNE) in the liver (BALB/cByJNarl mice [3]; [5]): significantly less
- expression amount of GSH in the liver (BALB/cByJNarl mice [3]; [5]): significantly greater
- expression amount of Kelch-like ECH-associated protein 1 (Keap1) in the liver (BALB/cByJNarl mice [3]; [5]): significantly less
- expression amount of heme oxygenase 1 (HO-1) in the liver (BALB/cByJNarl mice [3]; [5]): significantly greater
- expression amount of nuclear factor erythroid 2-related factor 2 (Nrf2) in the liver (BALB/cByJNarl mice [3]; [5]): significantly greater
- liver cell damage (H&E-stained liver section) (BALB/cByJNarl mice [3]; vs blank group): significantly damaged in comparison with those of the blank group
- liver cell damage (H&E-stained liver section) (BALB/cByJNarl mice [3]; vs control group): damaged to a smaller extent than those of the control group
- liver GPx concentration (BALB/cByJNarl mice [4]): significantly higher than those of the control group
- liver GSH concentration (BALB/cByJNarl mice [4]): significantly higher than those of the control group
- liver SOD concentration (BALB/cByJNarl mice [4]): significantly higher than those of the control group
